Assay results published in patent US20260365647A1, “AKT1 MODULATORS” (Alterome Therapeutics, Inc., priority 2022, published 2026).

Target: T1, AKT1-E17K (Homo sapiens, UniProt P31749, E17K)
T1 construct: host or cells: HEK-293 (ATCC CRL-1573)
Assay: NanoBRET Target Engagement (TE) Assay
Assay type: cell-based
In short: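 Live cells transiently expressing NanoLuc-AKT1 E17K fusion, incubated 2 h with tracer and compound before substrate plus extracellular NanoLuc inhibitor were added. BRET read at 450/600 nm; EC50 from variable-slope sigmoidal fit of tracer displacement.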

T1 sequence (P31749 whole entry E17K): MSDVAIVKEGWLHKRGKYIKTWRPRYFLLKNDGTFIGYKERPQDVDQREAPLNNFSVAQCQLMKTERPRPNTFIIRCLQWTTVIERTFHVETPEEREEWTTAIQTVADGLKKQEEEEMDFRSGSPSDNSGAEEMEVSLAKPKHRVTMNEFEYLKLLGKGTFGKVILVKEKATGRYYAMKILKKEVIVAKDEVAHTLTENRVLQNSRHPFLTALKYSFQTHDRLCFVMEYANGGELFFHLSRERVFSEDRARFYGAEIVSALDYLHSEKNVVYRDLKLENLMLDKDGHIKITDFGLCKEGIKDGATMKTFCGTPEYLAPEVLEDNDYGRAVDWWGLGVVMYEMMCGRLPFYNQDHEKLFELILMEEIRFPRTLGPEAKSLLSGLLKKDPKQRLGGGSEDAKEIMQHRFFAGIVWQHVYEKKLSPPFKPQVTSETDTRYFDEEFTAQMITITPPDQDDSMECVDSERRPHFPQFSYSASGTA

IC50 [µM]	SMILES
0.06 to 0.6	Nc1ncccc1-c1nc2ccc(-c3ccccc3)nc2n1-c1ccc(CN2CCC3(CCN(c4ccc(C=O)c(O)c4)C3)C2)cc1 (centres unmarked) [Example 82, 4-(7-(4-(2-(2-Aminopyridin-3-yl)-5-phenyl-3H-imidazo[4,5-b]pyridin-3-yl)benzyl)-2,7-diazaspiro[4.4]nonan-2-yl)-2-hydroxybenzaldehyde]
0.06 to 0.6	Nc1ncccc1-c1nc2ccc(-c3ccccc3)nc2n1-c1ccc(CN2CCC3(CCN(c4ccc(O)c(C=O)c4)C3)C2)cc1 (centres unmarked) [Example 83, 5-(7-(4-(2-(2-Aminopyridin-3-yl)-5-phenyl-3H-imidazo[4,5-b]pyridin-3-yl)benzyl)-2,7-diazaspiro[4.4]nonan-2-yl)-2-hydroxybenzaldehyde]
0.06 to 0.6	Nc1ncccc1-c1nc2ccc(-c3ccccc3)nc2n1-c1ccc(CN2CCC3(CCN(C(=O)c4ccc(O)c(C=O)c4)CC3)C2)cc1 [Example 84, 5-(2-(4-(2-(2-Aminopyridin-3-yl)-5-phenyl-3H-imidazo[4,5-b]pyridin-3-yl)benzyl)-2,8-diazaspiro[4.5]decane-8-carbonyl)-2-hydroxybenzaldehyde]
0.06 to 0.6	Nc1ncccc1-c1nc2ccc(-c3ccccc3)nc2n1-c1ccc(CN2CCC3(CCN(c4ccc(C=O)c(O)c4)CC3)C2)cc1 [Example 85, 4-(2-(4-(2-(2-Aminopyridin-3-yl)-5-phenyl-3H-imidazo[4,5-b]pyridin-3-yl)benzyl)-2,8-diazaspiro[4.5]decan-8-yl)-2-hydroxybenzaldehyde]
0.06 to 0.6	Nc1ncccc1-c1nc2ccc(-c3ccccc3)nc2n1-c1ccc(CN2CCC3(CCCN(C(=O)c4ccc(O)c(C=O)c4)C3)C2)cc1 (centres unmarked) [Example 86, 5-(2-(4-(2-(2-Aminopyridin-3-yl)-5-phenyl-3H-imidazo[4,5-b]pyridin-3-yl)benzyl)-2,7-diazaspiro[4.5]decane-7-carbonyl)-2-hydroxybenzaldehyde]
0.06 to 0.6	Nc1ncccc1-c1nc2ccc(-c3ccccc3)nc2n1-c1ccc(CN2CCC3(CCCN(C(=O)c4ccc(C=O)c(O)c4)C3)C2)cc1 (centres unmarked) [Example 87, 4-(2-(4-(2-(2-Aminopyridin-3-yl)-5-phenyl-3H-imidazo[4,5-b]pyridin-3-yl)benzyl)-2,7-diazaspiro[4.5]decane-7-carbonyl)-2-hydroxybenzaldehyde]
0.06 to 0.6	Nc1ncccc1-c1nc2ccc(-c3ccccc3)nc2n1-c1ccc(CN2CCC3(CCCN(c4ccc(C=O)c(O)c4)C3)C2)cc1 (centres unmarked) [Example 88, 4-(2-(4-(2-(2-Aminopyridin-3-yl)-5-phenyl-3H-imidazo[4,5-b]pyridin-3-yl)benzyl)-2,7-diazaspiro[4.5]decan-7-yl)-2-hydroxybenzaldehyde]
0.015 to 0.06	Nc1ncccc1-c1nc2ccc(-c3ccccc3)nc2n1-c1ccc(CN2CC3(C2)CN(c2ccc(C=O)c(O)c2)C3)cc1 [Example 89, 4-(6-(4-(2-(2-aminopyridin-3-yl)-5-phenyl-3H-imidazo[4,5-b]pyridin-3-yl)benzyl)-2,6-diazaspiro[3.3]heptan-2-yl)-2-hydroxybenzaldehyde]
0.06 to 0.6	Nc1ncccc1-c1nc2ccc(-c3ccccc3)nc2n1-c1ccc(CN2CCC3(CCN(C(=O)c4ccc(C=O)c(O)c4)CC3)C2)cc1 [Example 90, 4-(2-(4-(2-(2-Aminopyridin-3-yl)-5-phenyl-3H-imidazo[4,5-b]pyridin-3-yl)benzyl)-2,8-diazaspiro[4.5]decane-8-carbonyl)-2-hydroxybenzaldehyde]
0.06 to 0.6	Nc1ncccc1-c1nc2ccc(-c3ccccc3)nc2n1-c1ccc(CN2CC3(C2)CN(c2ccc(O)c(C=O)c2)C3)cc1 [Example 91, 5-(6-(4-(2-(2-Aminopyridin-3-yl)-5-phenyl-3H-imidazo[4,5-b]pyridin-3-yl)benzyl)-2,6-diazaspiro[3.3]heptan-2-yl)-2-hydroxybenzaldehyde]
0.015 to 0.06	Nc1ncccc1-c1nc2ccc(-c3ccccc3)nc2n1-c1ccc(CN2CC3(CCN(C(=O)c4ccc(O)c(C=O)c4)C3)C2)cc1 [Example 92, 5-(2-(4-(2-(2-Aminopyridin-3-yl)-5-phenyl-3H-imidazo[4,5-b]pyridin-3-yl)benzyl)-2,6-diazaspiro[3.4]octane-6-carbonyl)-2-hydroxybenzaldehyde]
0.06 to 0.6	Nc1ncccc1-c1nc2ccc(-c3ccccc3)nc2n1-c1ccc(CN2CC3(CCN(C(=O)c4ccc(C=O)c(O)c4)C3)C2)cc1 [Example 93, 4-(2-(4-(2-(2-Aminopyridin-3-yl)-5-phenyl-3H-imidazo[4,5-b]pyridin-3-yl)benzyl)-2,6-diazaspiro[3.4]octane-6-carbonyl)-2-hydroxybenzaldehyde]
0.015 to 0.06	Nc1ncccc1-c1nc2ccc(-c3ccccc3)nc2n1-c1ccc(CN2CC3(CCN(c4ccc(C=O)c(O)c4)C3)C2)cc1 [Example 94, 4-(2-(4-(2-(2-Aminopyridin-3-yl)-5-phenyl-3H-imidazo[4,5-b]pyridin-3-yl)benzyl)-2,6-diazaspiro[3.4]octan-6-yl)-2-hydroxybenzaldehyde]
0.06 to 0.6	Nc1ncccc1-c1nc2ccc(-c3ccccc3)nc2n1-c1ccc(CN2CC3(CCN(C(=O)c4ccc(O)c(C=O)c4)CC3)C2)cc1 [Example 95, 5-(2-(4-(2-(2-Aminopyridin-3-yl)-5-phenyl-3H-imidazo[4,5-b]pyridin-3-yl)benzyl)-2,7-diazaspiro[3.5]nonane-7-carbonyl)-2-hydroxybenzaldehyde]
0.06 to 0.6	Nc1ncccc1-c1nc2ccc(-c3ccccc3)nc2n1-c1ccc(CN2CC3(CCN(C(=O)c4ccc(C=O)c(O)c4)CC3)C2)cc1 [Example 96, 4-(2-(4-(2-(2-Aminopyridin-3-yl)-5-phenyl-3H-imidazo[4,5-b]pyridin-3-yl)benzyl)-2,7-diazaspiro[3.5]nonane-7-carbonyl)-2-hydroxybenzaldehyde]
0.06 to 0.6	Nc1ncccc1-c1nc2ccc(-c3ccccc3)nc2n1-c1ccc(CN2CC3(CCN(c4ccc(C=O)c(O)c4)CC3)C2)cc1 [Example 97, 4-(2-(4-(2-(2-Aminopyridin-3-yl)-5-phenyl-3H-imidazo[4,5-b]pyridin-3-yl)benzyl)-2,7-diazaspiro[3.5]nonan-7-yl)-2-hydroxybenzaldehyde]
0.015 to 0.06	Nc1ncccc1-c1nc2ccc(-c3ccccc3)nc2n1-c1ccc(CN2CC[C@@]3(CCN(C(=O)c4ccc(O)c(C=O)c4)C3)C2)cc1 [Example 98, (R)-5-(7-(4-(2-(2-aminopyridin-3-yl)-5-phenyl-3H-imidazo[4,5-b]pyridin-3-yl)benzyl)-2,7-diazaspiro[4.4]nonane-2-carbonyl)-2-hydroxybenzaldehyde]
0.06 to 0.6	Nc1ncccc1-c1nc2ccc(-c3ccccc3)nc2n1-c1ccc(CN2CC[C@@]3(CCN(C(=O)c4ccc(C=O)c(O)c4)C3)C2)cc1 [Example 99, (R)-4-(7-(4-(2-(2-aminopyridin-3-yl)-5-phenyl-3H-imidazo[4,5-b]pyridin-3-yl)benzyl)-2,7-diazaspiro[4.4]nonane-2-carbonyl)-2-hydroxybenzaldehyde]
0.06 to 0.6	Nc1ncccc1-c1nc2ccc(-c3ccccc3)nc2n1-c1ccc(CN2CC[C@@]3(CCN(c4ccc(C=O)c(O)c4)C3)C2)cc1 [Example 100, (R)-4-(7-(4-(2-(2-Aminopyridin-3-yl)-5-phenyl-3H-imidazo[4,5-b]pyridin-3-yl)benzyl)-2,7-diazaspiro[4.4]nonan-2-yl)-2-hydroxybenzaldehyde]
0.06 to 0.6	Nc1ncccc1-c1nc2ccc(-c3ccccc3)nc2n1-c1ccc(CN2CC[C@]3(CCN(C(=O)c4ccc(O)c(C=O)c4)C3)C2)cc1 [Example 101, (S)-5-(7-(4-(2-(2-Aminopyridin-3-yl)-5-phenyl-3H-imidazo[4,5-b]pyridin-3-yl)benzyl)-2,7-diazaspiro[4.4]nonane-2-carbonyl)-2-hydroxybenzaldehyde]
0.06 to 0.6	Nc1ncccc1-c1nc2ccc(-c3ccccc3)nc2n1-c1ccc(CN2CC[C@]3(CCN(C(=O)c4ccc(C=O)c(O)c4)C3)C2)cc1 [Example 102, (S)-4-(7-(4-(2-(2-Aminopyridin-3-yl)-5-phenyl-3H-imidazo[4,5-b]pyridin-3-yl)benzyl)-2,7-diazaspiro[4.4]nonane-2-carbonyl)-2-hydroxybenzaldehyde]
0.06 to 0.6	Nc1ncccc1-c1nc2ccc(-c3ccccc3)nc2n1-c1ccc(CN2CC[C@]3(CCN(c4ccc(C=O)c(O)c4)C3)C2)cc1 [Example 103, (S)-4-(7-(4-(2-(2-Aminopyridin-3-yl)-5-phenyl-3H-imidazo[4,5-b]pyridin-3-yl)benzyl)-2,7-diazaspiro[4.4]nonan-2-yl)-2-hydroxybenzaldehyde]
0.06 to 0.6	C[C@@H]1CN(Cc2ccc(-n3c(-c4cccnc4N)nc4ccc(-c5ccccc5)nc43)cc2)CCN1c1ccc(C=O)c(O)c1 [Example 104, (R)-4-(4-(4-(2-(2-Aminopyridin-3-yl)-5-phenyl-3H-imidazo[4,5-b]pyridin-3-yl)benzyl)-2-methylpiperazin-1-yl)-2-hydroxybenzaldehyde]
0.06 to 0.6	C[C@H]1CN(Cc2ccc(-n3c(-c4cccnc4N)nc4ccc(-c5ccccc5)nc43)cc2)CCN1C(=O)c1ccc(O)c(C=O)c1 [Example 105, (S)-5-(4-(4-(2-(2-Aminopyridin-3-yl)-5-phenyl-3H-imidazo[4,5-b]pyridin-3-yl)benzyl)-2-methylpiperazine-1-carbonyl)-2-hydroxybenzaldehyde]
> 0.6	C[C@H]1CN(Cc2ccc(-n3c(-c4cccnc4N)nc4ccc(-c5ccccc5)nc43)cc2)CCN1C(=O)c1ccc(C=O)c(O)c1 [Example 106, (S)-4-(4-(4-(2-(2-Aminopyridin-3-yl)-5-phenyl-3H-imidazo[4,5-b]pyridin-3-yl)benzyl)-2-methylpiperazine-1-carbonyl)-2-hydroxybenzaldehyde]
0.06 to 0.6	C[C@H]1CN(Cc2ccc(-n3c(-c4cccnc4N)nc4ccc(-c5ccccc5)nc43)cc2)CCN1c1ccc(C=O)c(O)c1 [Example 107, (S)-4-(4-(4-(2-(2-aminopyridin-3-yl)-5-phenyl-3H-imidazo[4,5-b]pyridin-3-yl)benzyl)-2-methylpiperazin-1-yl)-2-hydroxybenzaldehyde]
